According to PMC3169410 (Acta Crystallographica Section F: Structural Biology and …, 2011):
Read-outs that look alike come from different tables or passages of the source.

Biological target: T1, BrabA.11339.a (Brucella abortus, UniProt Q2YQ74)
T1 construct: gene BAB1_1016
Conditions: Mn2+ dinuclear active site at dimer interface

T1 sequence (Q2YQ74 2-272 limits assumed): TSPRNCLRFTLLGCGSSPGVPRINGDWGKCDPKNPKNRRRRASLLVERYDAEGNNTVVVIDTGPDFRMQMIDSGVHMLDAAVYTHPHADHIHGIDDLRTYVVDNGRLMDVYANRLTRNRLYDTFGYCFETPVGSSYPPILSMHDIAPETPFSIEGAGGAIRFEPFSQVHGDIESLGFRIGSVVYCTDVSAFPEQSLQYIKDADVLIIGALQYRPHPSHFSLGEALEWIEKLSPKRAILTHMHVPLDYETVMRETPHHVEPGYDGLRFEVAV

| Structure (SMILES) | X-ray crystallography (GMP copurified from E. coli, partially occupied (3md7, 1.27 A), full density in cocrystal with 1 mM GMPPNP and 2 mM MgCl2 (3py6, 1.7 A)) | X-ray crystallography (AMP found in cocrystals grown with 1 mM AMPPNP and 2 mM MgCl2 (1.7 A and 1.6 A)) |
| --- | --- | --- |
| Nc1nc2c(ncn2[C@@H]2O[C@H](COP(=O)(O)O)[C@@H](O)[C@H]2O)c(=O)[nH]1 [GMP] | In the native structure, a partially occupied GMP molecule can be observed in the immediate proximity |  |
| Nc1ncnc2c1ncn2[C@@H]1O[C@H](COP(=O)(O)O)[C@@H](O)[C@H]1O [AMP] |  | very solid electron density could be observed for GMP and AMP, respectively |
